# Measurements taken from patent US10854312B2, “Selective peptide antagonists” (BIONIZ, LLC, priority 2013, dated 2020).
# Entries after “also recorded” stand apart in the source; their conditions may differ. No end group written: not given here.
# Assays:
# Assay type in all cases: cell-based
# mouse IL-4 signal = test: Western blot of phosphorylation downstream of IL-4 in PT-18 cells; details: 1 nM mouse IL-4, excess dose of BNZ132-1, 15 min
# Description: PT-18 cells32 were fasted of IL-3 for 12 h prior to stimulation. Cells were stimulated with 1 nM mouse IL-4 or mouse IL-9 in the presence or absence of excess dose of BNZ132-1 ([…]) for 15 min and then cellular proteins were extracted. Phosphorylation of the indicated proteins was detected using phosphor-specific antibodies (Cell signaling), followed by ECL. IL-4 is the only γc-cytokine that induces the phosphorylation of STAT6. Note that only IL-4, but not IL-9, induced the tyrosine-phosphorylation of STAT6. […] Lanes: 1. no stimulation, 2. IL-4, 3. IL-4+BNZ132-1, 4. IL-9, 5. IL-9+BNZ132-1
# human IL-15 = test: CTLL-2 proliferation assay (WST-1), IL-15; details: murine CTLL-2 cells, 1 nM human IL-15, BNZ132-1 50 and 500 nM, WST-1 OD450
# Description: FIG. 6A-FIG. 6E presents inhibitory spectrum of BNZ132-1 over γc- and non-γc-cytokines. […] Neutralizing antibodies against each cytokine (R & D systems, 5 μg ml^−1) were included as controls. After 20 h, the cells were pulsed with WST-1 (Clontech) and OD450 of each well was measured after 6 h. A 19-mer scrambled peptide was used as a negative control at 5 μM. The experiments were conducted in triplicate (applies to all experiments in FIG. 6A-FIG. 6E). The result represents one of at least three independent experiments (applies to all experiments in FIG. 6A-FIG. 6E). […] In PT-18 proliferation assay, PT-18β or PT-18h21Rα cells were withdrawn of mouse IL-3 for 12 h before the experiment. Cells were then incubated with 1 nM of mouse IL-4, mouse IL-9, or mouse IL-21 in the presence or absence of the indicated doses (μM) of BNZ132-1. Neutralizing antibodies to each cytokine (5 μg ml^−1, except for anti-mouse IL-21 polyclonal antibody which was used at 15 μg ml−1) and a scrambled control peptide (5 μM) were included as negative controls. WST-1 assay was conducted as described above. […] In PT-18 h21Rα survival assay, PT-18h21Rα cells are described in the text. […] Both parental and hIL-21Rα positive PT-18 cells were washed and incubated without IL-3 for 12 h before the assay. […] The Y-axis represents the cpm (count per minute) values measured by a β-counter. […]
# [1] = system: IL-15 signaling (STAT5, PI3kinase-Akt, MAP-kinase branches); test: Western blot of phosphorylation downstream of IL-15 in PT-18β cells; details: 1 nM human IL-15, 0.5 μM BNZ132-1
# Description: FIG. 9A-FIG. 9C present comprehensive inhibition by BN132-1 of signaling events caused by target γc-cytokines. […] Cells have been fasted of IL-3 for 12 h and then stimulated with 1 nM human IL-15 (Peprotech) in the presence or absence of 0.5 μM BNZ132-1 for 15 min before extraction of cellular proteins. Phosphorylation of the relevant molecules were detected using antibodies against each phosphor-proteins (Cell Signaling), followed by the ECL technique (Thermo Scientific). Lanes: 1. no stimulation, 2. IL-15 (1 nM), 3. IL-15 (1 nM)+BNZ132-1 (0.5 μM).
# Cellular proliferation often represents a combination of several independent signaling pathways, and inhibiting one signaling branch […] the proliferation. […] FIG. 9A-FIG. 9C show comprehensive inhibition of the signal transduction pathways downstream of IL-15/IL-15 receptor system in PT-18 cells by BNZ 132-1. PT-18β cells have been withdrawn of IL-15 for overnight to induce into proliferative quiescence (no-stimulation). To restimulate the cells, 1 nM of IL-15 was added in the presence or absence of BNZ132-1 (0.5 μM). After […], cell lysates were collected and phosphorylation of key mediators of major signaling branches were determined by western blotting.
sequence,measurement,setting,value
IKEFLQRFIHIVQSIINTS [BNZ132-1],"inhibition of IL-4 signal transduction (phosphorylation, STAT6)",mouse IL-4 signal,does not interfere; also recorded: not inhibited
same,inhibition of IL-15-induced proliferation of CTLL-2 cells,human IL-15,inhibited IL-2 and IL-15 with an equal efficacy; also recorded: efficiently inhibits; also recorded: inhibition of IL-2 and IL-15
same,inhibition of IL-15 signaling (phosphorylation of key signaling molecules),[1],comprehensively inhibited; also recorded: near-complete inhibition
